In patent US20090263341A1, “SOFT ANTICHOLINERGIC ESTERS” (priority 2005, published 2009):
Where a name gives a salt, the structure may show the parent alone. Read-outs that look alike come from different tables or passages of the source.

Key:
[1] = target: T1, cloned human muscarinic receptor subtype M4 (Homo sapiens, UniProt P08173); assay: Receptor binding, [3H]NMS, cloned human muscarinic receptor M4
T1 construct: purchased Applied Cell Science Inc. (Rockville, Md.)
T1 sequence (P08173 1-479): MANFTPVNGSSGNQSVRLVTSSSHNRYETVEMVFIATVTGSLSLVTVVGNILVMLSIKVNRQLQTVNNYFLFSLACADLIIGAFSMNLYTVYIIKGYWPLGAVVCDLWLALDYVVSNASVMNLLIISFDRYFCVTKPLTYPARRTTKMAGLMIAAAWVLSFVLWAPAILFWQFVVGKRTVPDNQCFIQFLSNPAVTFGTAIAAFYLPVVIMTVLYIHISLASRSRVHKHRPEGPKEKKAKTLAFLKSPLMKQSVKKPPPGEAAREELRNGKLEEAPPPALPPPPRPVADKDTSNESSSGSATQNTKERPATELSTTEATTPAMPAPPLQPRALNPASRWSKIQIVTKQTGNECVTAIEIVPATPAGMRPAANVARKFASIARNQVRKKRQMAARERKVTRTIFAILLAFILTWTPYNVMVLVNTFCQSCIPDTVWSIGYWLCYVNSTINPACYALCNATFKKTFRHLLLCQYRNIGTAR

[2] = target: cloned human muscarinic receptor subtypes M1-M4; assay: Receptor binding at cloned human muscarinic receptors, values stated across subtypes (ranges, M3/M2 selectivity)
[3] = target: T2, cloned human muscarinic receptor subtype M3 (Homo sapiens, UniProt P20309); assay: Receptor binding, [3H]NMS, cloned human muscarinic receptor M3
T2 construct: purchased Applied Cell Science Inc. (Rockville, Md.)

[4] = target: T3, cloned human muscarinic receptor subtype M1 (Homo sapiens, UniProt P11229); assay: Receptor binding, [3H]NMS, cloned human muscarinic receptor M1
T3 sequence (P11229 1-460): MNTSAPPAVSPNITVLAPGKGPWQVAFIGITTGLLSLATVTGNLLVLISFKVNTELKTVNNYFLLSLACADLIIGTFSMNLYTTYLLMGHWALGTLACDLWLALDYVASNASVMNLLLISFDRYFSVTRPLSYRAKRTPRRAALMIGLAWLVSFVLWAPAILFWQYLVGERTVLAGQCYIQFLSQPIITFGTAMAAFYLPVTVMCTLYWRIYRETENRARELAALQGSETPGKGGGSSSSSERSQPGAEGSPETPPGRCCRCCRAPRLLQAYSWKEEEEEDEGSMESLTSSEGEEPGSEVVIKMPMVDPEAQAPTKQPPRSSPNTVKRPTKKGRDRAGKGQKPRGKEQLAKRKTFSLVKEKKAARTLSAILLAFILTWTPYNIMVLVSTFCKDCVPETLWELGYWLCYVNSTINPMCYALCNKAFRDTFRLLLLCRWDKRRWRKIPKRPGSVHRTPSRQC

[5] = target: T4, cloned human muscarinic receptor subtype M2 (Homo sapiens, UniProt P08172); assay: Receptor binding, [3H]NMS, cloned human muscarinic receptor M2
T4 sequence (P08172 1-466): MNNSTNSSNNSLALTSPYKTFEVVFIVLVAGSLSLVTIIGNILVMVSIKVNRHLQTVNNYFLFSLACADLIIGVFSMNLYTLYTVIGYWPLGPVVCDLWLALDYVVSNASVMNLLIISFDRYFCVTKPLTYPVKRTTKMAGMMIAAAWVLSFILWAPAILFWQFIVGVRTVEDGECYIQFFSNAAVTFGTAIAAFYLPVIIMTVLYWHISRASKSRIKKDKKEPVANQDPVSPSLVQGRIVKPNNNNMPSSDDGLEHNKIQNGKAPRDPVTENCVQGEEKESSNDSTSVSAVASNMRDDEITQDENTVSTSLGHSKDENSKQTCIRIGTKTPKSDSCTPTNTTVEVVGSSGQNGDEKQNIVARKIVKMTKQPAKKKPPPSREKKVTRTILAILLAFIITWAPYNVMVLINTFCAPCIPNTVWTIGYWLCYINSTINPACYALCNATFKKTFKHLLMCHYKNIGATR

[6] = system: guinea pig tracheal rings; assay: Guinea pig trachea assay, pA2 against carbachol (Schild plot)
Protocol: Changes in isometric tension were measured by a force displacement transducer (Experimetria, Budapest, Hungary) coupled to a Watanabe recorder. Cumulative concentration-effect curves were constructed to carbachol in the absence or presence of the antagonists. In each animal two preparations were used as time control (i.e., repeated carbachol curves in the absence of any antagonist) the remaining two preparations were used to test responses in the presence of two different concentrations of the antagonist.
Antagonists were added to the organ bath 30 min prior to commencement of the agonist concentration versus effect curves. Schild plots were constructed for the antagonists against carbachol and pA2 values as well as slope estimates were obtained.
Responses were measured as changes in isometric tension and calculated as a percentage of the maximum response attained in the initial concentration-response curve. Determination of antagonist potencies was done by constructing Schild double logarithmic plot of log (DR-1) versus −log M concentrations of the antagonist, and the slope of the plot was computed. […] Statistical significance was assessed by ANOVA followed by Dunnett test.

[7] = system: acetylcholine-induced bronchoconstriction; conditions: guinea pig, in vivo
[8] = system: guinea pig ileum (M3 muscarinic receptors)
[9] = system: guinea pig ileum longitudinal muscle strips; assay: Guinea pig ileum longitudinal muscle assay, pA2 against acetylcholine (Schild plot)
[10] = system: electrically stimulated guinea pig tracheal strips; assay: Time course of anticholinergic effect in electrically stimulated guinea pig trachea
[11] = target: muscarinic receptors (mainly M1) of rat brain cortex membranes (Rattus norvegicus, UniProt P08482); format: binding
[12] = time from washout to 20% recovery of cholinergic responses

C[N+]1(CC(=O)OCC(Cl)(Cl)Cl)[C@@H]2C[C@@H](OC(=O)C(O)(c3cccs3)c3cccs3)C[C@H]1[C@@H]1O[C@@H]12 (some centres unmarked) (as salt: bromide)
melting point: 105 °C

CCOC(=O)C[N+]1(C)[C@@H]2C[C@@H](OC(=O)C(O)(c3cccs3)c3cccs3)C[C@H]1[C@@H]1O[C@@H]12 (stereo partly drawn) (as salt: bromide) [Compound (w), 6β,7β-epoxy-3,8-hydroxy-8-ethoxycarbonylmethyl-8-methyl-1αH,5αH-tropaniun bromide, di-2-thienylglycolate]
melting point: 115 °C

C[N+]1(CC(=O)O)[C@@H]2C[C@@H](OC(=O)C(O)(c3cccs3)c3cccs3)C[C@H]1[C@@H]1O[C@@H]12 (stereo partly drawn) (as salt: salt) [Compound (aa), 6β,7β-epoxy-3β-hydroxy-8-carboxymethyl-8-methyl-1αH,5αH-tropanuim, di-2-thienylglycolate inner salt]
melting point: 158 to 165 °C (dec.)

CCOC(=O)C[N+]1(C)CC[C@H](OC(=O)[C@](O)(c2ccccc2)C2CCCC2)C1 (mixture of isomers) [Compound (j), (2R,3′S) 3-(2-cyclopentyl-2-phenyl-2-hydroxyacetoxy)-1-(ethoxycarbonylmethyl)-1-methylpyrrolidinium bromide]
Ki ([1]; mean ± SD of 3 experiments, read-out: receptor binding affinity pKi, M4 (converted)): 1.95 nM
Hill slope, M4 ([1]; numbers in parentheses): (1.15 ± 0.03)
pKi, range over subtypes M1-M4 [2]: 8.2-8.7
Selectivity M3/M2 (affinity ratio) ([2]; M3/M2 affinity ratio): 2.8±0.8 times
Ki ([3]; mean ± SD of 3 experiments, read-out: receptor binding affinity pKi, M3 (converted)): 2.29 nM
Hill slope, M3 ([3]; numbers in parentheses): (1.33 ± 0.16)
Ki ([4]; mean ± SD of 3 experiments, read-out: receptor binding affinity pKi, M1 (converted)): 2.09 nM
Hill slope, M1 ([4]; numbers in parentheses): (1.21 ± 0.33)
Ki ([5]; mean ± SD of 3 experiments, read-out: receptor binding affinity pKi, M2 (converted)): 6.17 nM
Hill slope, M2 ([5]; numbers in parentheses): (1.27 ± 0.11)

C[N+]1(C)CCC(OC(=O)C(O)(c2ccccc2)C2CCCC2)C1.[Br-] (mixture of isomers) [glycopyrrolate, 3-(2-cyclopentyl-2-phenyl-2-hydroxyacetoxy)-1,1-dimethylpyrrolidinium bromide, reference compound]
Hill slope, M4 [1]: (1.02 ± 0.01)
pA2, Trachea [6]: 9.43
effect on acetylcholine-induced bronchoconstriction [7]: protective effect
Hill slope, M3 [3]: (1.14 ± 0.25)
pA2 [8]: 8.57±0.12
Hill slope, M1 [4]: (1.37 ± 0.20)
Hill slope, M2 [5]: (0.99 ± 0.11)
pA2, Ileum [9]: 9.66

CN1[C@@H]2CC[C@H]1C[C@@H](OC(=O)C(CO)c1ccccc1)C2 (some centres unmarked) [Atropine, atropine]
t1/5 offset [10]: 10 min
t1/5 onset [10]: 2.5 min
pA2, Ileum [9]: 8.52

C[N+]1(CC(=O)O)[C@@H]2C[C@@H](OC(=O)C(O)(c3cccs3)c3cccs3)C[C@H]1[C@@H]1O[C@@H]12 (stereo partly drawn) [Compound (aa), 6β,7β-epoxy-3β-hydroxy-8-carboxymethyl-8-methyl-1αH,5αH-tropanuim, di-2-thienylglycolate inner salt]
t1/5 onset ([10]; onset of inhibition): 0.9 min
t1/5 offset [10, 12]: 27 min

CCOC(=O)C[N@+]1(C)CC[C@@H](OC(=O)[C@](O)(c2ccccc2)C2CCCC2)C1 [Compound (m), (2R,1′R,3′R) 3-(2-cyclopentyl-2-phenyl-2-hydroxyacetoxy)-1-(ethoxycarbonylmethyl)-1-methylpyrrolidinium bromide]
pA2, Trachea ([6]; against carbachol, tissue from four animals): 8.12
effect on acetylcholine-induced bronchoconstriction [7]: protective effect
Hill slope ([11]; Table 8): −0.93 ± 0.08
pA2, Ileum ([9]; tissue samples from four animals): 8.48

CCOC(=O)C[N@@+]1(C)CC[C@@H](OC(=O)[C@](O)(c2ccccc2)C2CCCC2)C1 [Compound (n), (2R,1′S,3′R) 3-(2-cyclopentyl-2-phenyl-2-hydroxyacetoxy)-1-(ethoxycarbonylmethyl)-1-methylpyrrolidinium bromide]
Hill slope ([11]; Table 8): −1.07 ± 0.02

CCOC(=O)C[N+]1(C)[C@@H]2C[C@@H](OC(=O)C(O)(c3cccs3)c3cccs3)C[C@H]1[C@@H]1O[C@@H]12 (stereo partly drawn) [Compound (w), 6β,7β-epoxy-3,8-hydroxy-8-ethoxycarbonylmethyl-8-methyl-1αH,5αH-tropaniun bromide, di-2-thienylglycolate]
pA2, Trachea [6]: 8.82
Hill slope [11]: −1.00 ± 0.04
Ki [11]: 7.2 ± 0.5 nM
t1/5 onset ([10]; onset of inhibition): 0.6 min
t1/5 offset [10, 12]: 60 min

CC(C)[N+]1(C)[C@@H]2CC[C@H]1CC(OC(=O)C(CO)c1ccccc1)C2.[Br-] (some centres unmarked) [Ipratropium Br, ipratropium bromide, reference compound]
pA2, Trachea [6]: 9.18
t1/5 onset [10]: 3.0 min

C[N+]1(C)[C@@H]2C[C@@H](OC(=O)C(O)(c3cccs3)c3cccs3)C[C@H]1[C@@H]1O[C@@H]12 [Tiotropium, tiotropium]
t1/5 offset [10]: >360 min
t1/5 onset [10]: 8.0 min

C[N+]1(C)[C@@H]2C[C@@H](OC(=O)[C@H](CO)c3ccccc3)C[C@H]1[C@@H]1O[C@@H]12 [scopolamine methyl bromide, scopolamine methylbromide, reference compound]
Hill slope, M2 [5]: (1.02 ± 0.02)
